Test results from patent US6060608A, “Analogs of CC-1065 and the duocarmycins” (The Scripps Research Institute, priority 1999, dated 2000).
Read-outs that look alike come from different tables or passages of the source.

Assays:
[1] = Solvolysis in THF-CH3OH with CF3SO3H; assay type: physicochemical; conditions: 20 equiv CH3OH, 0.1 equiv CF3SO3H
Protocol: Solvolysis of N-BOC-CCBI in THF-CH3 OH. The solvolysis of N-BOC-CCBI (25) was carried out in THF with 20-500 equiv of CH3 OH in the presence of 0.1-0.25 equiv of CF3 SO3 H. The following is the procedure for the solvolysis of 25 in THF with 20 equiv of CH3 OH in the presence of CF3 SO3 H (0.1 equiv). A stock solution was prepared by addition of CF3 SO3 H (5.6 μL) and anhydrous CH3 OH (502 μL) to anhydrous THF (99.49 mL). A sample of 25 (100 μg) in a UV cell was dissolved in THF (1950 μL) and the THF stock solution (50 μL) which contained CF3 SO3 H (0.1 equiv) and CH3 OH (20 equiv) was added. The solvolysis solution was sealed and UV spectrum was measured with an automated cycle program at regular intervals (10 min/cycle). The decrease in the long wavelength absorption at 313 nm was monitored and the solvolysis was complete after 80 h.

[2] = Aqueous solvolysis reactivity followed by UV; assay type: physicochemical; conditions: for half-life: read-out: solvolysis half-life t1/2 (converted)
Protocol: The reactivity of 217-219 was assessed by following the solvolysis spectrophotometrically by UV at both pH 3 (50% CH3 OH-buffer, buffer=4:1:20 (v/v/v) 0.1 M citric acid, 0.2 M Na2 HPO4, H2 O) and pH 7 (1:1 H2 O--CH3 OH) measuring both the disappearance of the long-wavelength absorption band of the F2 CBI chromophore and the appearance of a short-wavelength absorption band attributable to the ring open products (FIG. 31).
Aqueous Solvolysis Reactivity. pH 3: N-BOC-CCBI (25, 100 μg) was dissolved in CH3 OH (1.5 mL) and mixed with pH 3 aqueous buffer (1.5 mL). The buffer contained 4:1:20 (v:v:v) 0.1 M citric acid, 0.2 M Na2 HPO4 and H2 O, respectively. The solvolysis solution was sealed and kept at 25° C. protected from light. The UV spectrum was measured at regular intervals every 2 h during the first day, every 12 h for another week, and every 24 h for an additional week. The decrease in the long-wavelength absorption at 322 nm and the increase in the short-wavelength absorption at 268 nm were monitored, FIG. 1.
pH 2: Samples of 25 (100 μg) and 26 (50 μg) were dissolved in CH3 OH (1.5 mL) and the solutions were mixed with aqueous buffer (pH 2.05, 1.5 mL). The buffer contained 4:1:20 (v:v:v) 1.0 M citric acid, 0.2 M Na2 HPO4, and H2 O, respectively. Immediately after mixing, the UV spectra of the solutions were measured against a reference solution containing CH3 OH (1.5 mL) and the aqueous buffer (1.5 mL) and these readings were used for the initial absorbance values. The solutions were stoppered, protected from the light, and allowed to stand at 25° C. UV spectra were recorded at regular intervals until constant values were obtained for the long and short wavelength absorbances. The solvolysis rate constants were determined from the slope of the lines obtained from linear least squares treatment of plots of ln[(Af -Ai)/(Af -A)] versus time using the short wavelength measurements for 25 and long wavelength measurements for 26).

[3] = pH 2 (buffer pH 2.05), CH3OH-buffer 1:1, 25° C.

SMILES: CC(C)(C)OC(=O)N1CC2CC23C1=CC(=O)c1ccc(C#N)cc13 (stereo not shown) [compound 25, N-(tert-Butyloxycarbonyl)-7-cyano-1,2,9,9a-tetrahydrocyclopropa[c]benz[e]indol-4-one]
- solvolysis half-life t1/2 [1]: 9.2 h
- solvolysis rate k [1]: 2e-05 s⁻¹
- time to complete solvolysis [1]: 80 h
- first order solvolysis rate constant [2, 3]: 7.94e-06 s⁻¹
- half-life [2, 3]: 24.2 h
- solvolysis rate constant k ([2]; pH 3, 50% CH3OH-buffer): 9.9e-07 s⁻¹
- half-life ([2]; pH 3, 50% CH3OH-buffer): 213 h
